ChEMBL document CHEMBL6078651, “Tyrosinase Inhibitory Properties of Compounds Isolated from Artocarpus integer Roots” (J Nat Prod, 2024)
Calls of active or inactive are those of the source. The rule behind the calls is not given here.

Target: Mushroom tyrosinase (Agaricus bisporus) (UniProt O42713+Q00024+C7FF04+C7FF05)
Assay: Inhibition of mushroom tyrosinase using L-DOPA as substrate at 50 uM preincubated for 10 mins followed by substrate addition measured after 20 mins by spectrophotometry
Assay type: protein assay
Conditions: time 30.0 min

SMILES	inhibition
COc1cc(O)c2c(c1)O[C@H](c1cc(OC)c(OC)cc1OC)CC2=O	inactive
COc1cc2c(c3oc(-c4cc(O)cc(O)c4)cc13)C=CC(C)(C)O2	inactive
C=C(C)C1Cc2c(oc3cc(OC)cc(O)c3c2=O)-c2c(O)cc(OC)c(O)c21 (stereo not given)	inactive
CC(C)=CCC/C(C)=C/Cc1c2c(c(O)c3c(=O)c(CC=C(C)C)c(-c4cc(C)c(O)cc4O)oc13)C=CC(C)(C)O2	inactive
C=CC(C)(C)/C=C/c1ccc(O)cc1	inactive
COc1cc2c(c3c1[C@H](C(C)(C)O)CC[C@@H]3c1ccc(O)cc1O)C=CC(C)(C)O2	inactive
CC(C)=CCC/C(C)=C/Cc1c2c(c(O)c3c(=O)c4c(oc13)-c1c(O)cc(O)c3c1C(C4)C(C)(C)O3)C=CC(C)(C)O2 (stereo not given)	inactive
CC(C)c1cc2c(O)cc(-c3cc4ccc(O)cc4o3)cc2o1	inactive
COc1cc(O)c2c(=O)c3c(oc2c1)-c1cc(O)c(OC)cc1OC3C=C(C)C (stereo not given)	inactive
COc1cc2c(cc1O)-c1oc3cc(O)cc(O)c3c(=O)c1C(C=C(C)C)O2 (stereo not given)	inactive
CC(C)=CC1Oc2cc(O)ccc2-c2oc3cc(O)cc(O)c3c(=O)c21 (stereo not given)	inactive
CC(C)=CCc1c2c(c(O)c3c(=O)c4c(oc13)-c1c(O)cc(O)c3c1C(C4)C(C)(C)O3)C=CC(C)(C)O2 (stereo not given)	inactive
C=C(C)c1cc2c(=O)c3c(O)c4c(c(CC=C(C)C)c3oc2c2c1[C@](O)(C(=O)OC)CC2=O)OC(C)(C)C=C4	inactive
C=C(C)c1cc2c(=O)c3c(O)c(CC=C(C)C)c(O)c(C/C=C(\C)CCC=C(C)C)c3oc2c2c1[C@](O)(C(=O)OC)CC2=O	inactive
C=C(C)c1cc2c(=O)c3c(O)c4c(c(C/C=C(\C)CCC=C(C)C)c3oc2c2c1[C@](O)(C(=O)OC)CC2=O)OC(C)(C)C=C4	inactive
